A value given as a limit tells only on which side of the number the result lay.

The assay deals with Ascaridia galli (L3) and Oesophagostumum dentatum (L3 and L4) larvae. Description: In vitro anthelmintic larval test, minimum effective concentration by microscopic examination. It is filed as cell-based. To be noted: activity against one or both of the nematodes (A. galli L3; O. dentatum L3, L4), 96-well plates, 20 larvae per well, vs DMSO-control, read-out: minimum effective concentration (MEC). The procedure:
C: Biological Examples Efficacy Against Ascaridia galli and Oesophagostomum dentatum
Anthelmintic effects of compounds of this invention (numbers refer to compound numbers in Table I) were tested in vitro using gut-welling larval stages of two parasitic nematode species: Ascaridia galli (intestinal roundworm of chicken), larval stage 3 (“L3”); and Oesophagostumum dentatum (nodular worm of swine), larval stages 3 and 4 (respectively “L3” and “L4”). When conducting these experiments, DMSO-solutions of various concentrations of compounds of this invention were prepared and incubated in 96-well microtiter plates. The parasites were then distributed at 20 larvae per well. The anthelmintic effects were classified by microscopic examination. The microscopic examination included assessing mortality, damage, motility, progression of development, and neutral red uptake by the larvae in comparison to a DMSO-control.
With `O=C(c1ccnc(Cl)c1)N1CC2(CCN(C/C=C/c3ccc(Cl)cc3)CC2)c2cc(Sc3ccc(F)cc3)ccc21` [Compound 26, [1′-[(E)-3-(4-chlorophenyl)allyl]-5-(4-fluorophenyl)sulfanyl-spiro[indoline-3,4′-piperidine]-1-yl]-(2-chloro-4-pyridyl)methanone], the minimal effective concentration was at most 50 µM. Then `Cc1cc(C(=O)N2CC3(CCN(C/C=C/c4ccc(F)cc4F)CC3)c3cc(Sc4ccc(F)cc4)ccc32)ccn1` [Compound 40, [1′-[(E)-3-(2,4-difluorophenyl)allyl]-5-(4-fluorophenyl)sulfanyl-spiro[indoline-3,4′-piperidine]-1-yl]-(2-methyl-4-pyridyl)methanone], with at most 50 µM; and `Cc1ccc(/C=C/CN2CCC3(CC2)CN(C(=O)c2ccnc(C)c2)c2ccc(Sc4ccc(F)cc4)cc23)c(C)c1` [Compound 22, [1′-[(E)-3-(2,4-dimethylphenyl)allyl]-5-(4-fluorophenyl)sulfanyl-spiro[indoline-3,4′-piperidine]-1-yl]-(2-methyl-4-pyridyl)methanone], with at most 50 µM; and `O=C(c1ccnc(Cl)c1)N1CC2(CCN(C/C=C/c3ccc(F)cc3F)CC2)c2cc(Sc3ccc(F)cc3)ccc21` [Compound 38, (2-chloro-4-pyridyl)-[1′-[(E)-3-(2,4-difluorophenyl)allyl]-5-(4-fluorophenyl)sulfanyl-spiro[indoline-3,4′-piperidine]-1-yl]methanone], with at most 50 µM. Regarding `Cc1cc(C(=O)N2CC3(CCN(C/C=C/c4ccc(Cl)cc4Cl)CC3)c3cc(Sc4ccc(F)cc4)ccc32)cc(Cl)n1` [Compound 30, (2-chloro-6-methyl-4-pyridyl)-[1′-[(E)-3-(2,4-dichlorophenyl)allyl]-5-(4-fluorophenyl)sulfanyl-spiro[indoline-3,4′-piperidine]-1-yl]methanone], the minimal effective concentration is at most 50 µM.

The record behind these values is patent US9096599B2, “Spiroindoline compounds” (Intervet Inc., priority 2011, dated 2015).
